{
  "source": "paper PMC12586182",
  "about": "(Frontiers in Oncology, 2025)",
  "assay_in_all_cases": "Cell viability assay (ATPlite)",
  "assay_type_in_all_cases": "cell-based",
  "key": {"[1]": {"system": "A-375", "conditions": "Homo sapiens; A-375 cell line, 72 hours incubation", "how_it_was_run": "(§1)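 Cells grew 24 h, then received 9-point √10-fold compound series in duplicate (0.4% DMSO final) for 72 h. ATP content was read by ATPlite luminescence and normalized to vehicle controls as % viability. IC50 came from a four-parameter logistic fit; curves with F-value above 1.5 were invalidated, with IC50 then set at the top concentration.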"}, "[2]": {"system": "A-704", "conditions": "Homo sapiens, A704; A-704 cell line, 72 hours incubation", "how_it_was_run": "as §1"}, "[3]": {"system": "C-33 A", "conditions": "Homo sapiens; C-33 A cell line, 72 hours incubation", "how_it_was_run": "as §1"}, "[4]": {"system": "DLD-1", "conditions": "Homo sapiens; DLD-1 cell line, 72 hours incubation", "how_it_was_run": "as §1"}, "[5]": {"system": "DU145", "conditions": "Homo sapiens, DU-145; DU145 cell line, 72 hours incubation", "how_it_was_run": "as §1"}, "[6]": {"system": "Daoy", "conditions": "Homo sapiens; Daoy cell line, 72 hours incubation", "how_it_was_run": "as §1"}, "[7]": {"system": "DoTc2 4510", "conditions": "Homo sapiens; DoTc2 4510 cell line, 72 hours incubation", "how_it_was_run": "as §1"}, "[8]": {"system": "FaDu", "conditions": "Homo sapiens; FaDu cell line, 72 hours incubation", "how_it_was_run": "as §1"}, "[9]": {"system": "HCC1954", "conditions": "Homo sapiens; HCC1954 cell line, 72 hours incubation", "how_it_was_run": "as §1"}, "[10]": {"system": "HEC-251", "conditions": "Homo sapiens; HEC-251 cell line, 72 hours incubation", "how_it_was_run": "as §1"}, "[11]": {"system": "Jurkat E6.1", "conditions": "Homo sapiens; Jurkat E6.1 cell line, 72 hours incubation", "how_it_was_run": "as §1"}, "[12]": {"system": "KLE", "conditions": "Homo sapiens; KLE cell line, 72 hours incubation", "how_it_was_run": "as §1"}, "[13]": {"system": "MCF-7", "conditions": "Homo sapiens, MCF7; MCF-7 cell line, 72 hours incubation", "how_it_was_run": "as §1"}, "[14]": {"system": "MSTO-211H", "conditions": "Homo sapiens; MSTO-211H cell line, 72 hours incubation", "how_it_was_run": "as §1"}, "[15]": {"system": "NCC-IT", "conditions": "Homo sapiens, NCCIT; NCC-IT cell line, 72 hours incubation", "how_it_was_run": "as §1"}, "[16]": {"system": "NCI-H2172", "conditions": "Homo sapiens; NCI-H2172 cell line, 72 hours incubation", "how_it_was_run": "as §1"}, "[17]": {"system": "NCI-H226", "conditions": "Homo sapiens; NCI-H226 cell line, 72 hours incubation", "how_it_was_run": "as §1"}, "[18]": {"system": "NCI-H460", "conditions": "Homo sapiens; NCI-H460 cell line, 72 hours incubation", "how_it_was_run": "as §1"}, "[19]": {"system": "NOMO-1", "conditions": "Homo sapiens; NOMO-1 cell line, 72 hours incubation", "how_it_was_run": "as §1"}, "[20]": {"system": "PC-3", "conditions": "Homo sapiens; PC-3 cell line, 72 hours incubation", "how_it_was_run": "as §1"}, "[21]": {"system": "RD-ES", "conditions": "Homo sapiens; RD-ES cell line, 72 hours incubation", "how_it_was_run": "as §1"}, "[22]": {"system": "RD", "conditions": "Homo sapiens; RD cell line, 72 hours incubation", "how_it_was_run": "as §1"}, "[23]": {"system": "RKO", "conditions": "Homo sapiens; RKO cell line, 72 hours incubation", "how_it_was_run": "as §1"}, "[24]": {"system": "RL", "conditions": "Homo sapiens; RL cell line, 72 hours incubation", "how_it_was_run": "as §1"}, "[25]": {"system": "RPMI-7951", "conditions": "Homo sapiens; RPMI-7951 cell line, 72 hours incubation", "how_it_was_run": "as §1"}, "[26]": {"system": "SK-N-AS", "conditions": "Homo sapiens; SK-N-AS cell line, 72 hours incubation", "how_it_was_run": "as §1"}, "[27]": {"system": "SW480", "conditions": "Homo sapiens; SW480 cell line, 72 hours incubation", "how_it_was_run": "as §1"}, "[28]": {"system": "SW780", "conditions": "Homo sapiens; SW780 cell line, 72 hours incubation", "how_it_was_run": "as §1"}, "[29]": {"system": "SW837", "conditions": "Homo sapiens; SW837 cell line, 72 hours incubation", "how_it_was_run": "as §1"}, "[30]": {"system": "SW900", "conditions": "Homo sapiens; SW900 cell line, 72 hours incubation", "how_it_was_run": "as §1"}, "[31]": {"system": "TOV-112D", "conditions": "Homo sapiens, TOV112D; TOV-112D cell line, 72 hours incubation", "how_it_was_run": "as §1"}, "[32]": {"system": "U-118MG", "conditions": "Homo sapiens; U-118MG cell line, 72 hours incubation", "how_it_was_run": "as §1"}},
  "data": [
    {"smiles": "O=C(c1ccc(Oc2ccccc2)cc1Cl)c1c[nH]c2ncnc(N[C@@H]3CC[C@@H](CO)OC3)c12", "note": "[nemtabrutinib]", "values": [
      {"measurement": "IC50", "setting": "[1]", "value": 0.404, "unit": "µM"},
      {"measurement": "IC50", "setting": "[2]", "value": 16.3, "unit": "µM"},
      {"measurement": "IC50", "setting": "[3]", "value": 1.32, "unit": "µM"},
      {"measurement": "IC50", "setting": "[4]", "value": 4.6, "unit": "µM"},
      {"measurement": "IC50", "setting": "[5]", "value": 1.64, "unit": "µM"},
      {"measurement": "IC50", "setting": "[6]", "value": 7.17, "unit": "µM"},
      {"measurement": "IC50", "setting": "[7]", "value": 1.41, "unit": "µM"},
      {"measurement": "IC50", "setting": "[8]", "value": 1.3, "unit": "µM"},
      {"measurement": "IC50", "setting": "[9]", "value": 1.32, "unit": "µM"},
      {"measurement": "IC50", "setting": "[10]", "value": 0.178, "unit": "µM"},
      {"measurement": "IC50", "setting": "[11]", "value": 0.267, "unit": "µM"},
      {"measurement": "IC50", "setting": "[12]", "value": 2.11, "unit": "µM"},
      {"measurement": "IC50", "setting": "[13]", "value": 12.1, "unit": "µM"},
      {"measurement": "IC50", "setting": "[14]", "value": 3.86, "unit": "µM"},
      {"measurement": "IC50", "setting": "[15]", "value": 4.62, "unit": "µM"},
      {"measurement": "IC50", "setting": "[16]", "value": 0.447, "unit": "µM"},
      {"measurement": "IC50", "setting": "[17]", "value": 4.62, "unit": "µM"},
      {"measurement": "IC50", "setting": "[18]", "value": 5.73, "unit": "µM"},
      {"measurement": "IC50", "setting": "[19]", "value": 4.78, "unit": "µM"},
      {"measurement": "IC50", "setting": "[20]", "value": 26.8, "unit": "µM"},
      {"measurement": "IC50", "setting": "[21]", "value": 4.17, "unit": "µM"},
      {"measurement": "IC50", "setting": "[22]", "value": 3.44, "unit": "µM"},
      {"measurement": "IC50", "setting": "[23]", "value": 1.22, "unit": "µM"},
      {"measurement": "IC50", "setting": "[24]", "value": 4.06, "unit": "µM"},
      {"measurement": "IC50", "setting": "[25]", "value": 2.22, "unit": "µM"},
      {"measurement": "IC50", "setting": "[26]", "value": 2.81, "unit": "µM"},
      {"measurement": "IC50", "setting": "[27]", "value": 3.34, "unit": "µM"},
      {"measurement": "IC50", "setting": "[28]", "value": 2.79, "unit": "µM"},
      {"measurement": "IC50", "setting": "[29]", "value": 3.81, "unit": "µM"},
      {"measurement": "IC50", "setting": "[30]", "value": 2.29, "unit": "µM"},
      {"measurement": "IC50", "setting": "[31]", "value": 2.76, "unit": "µM"},
      {"measurement": "IC50", "setting": "[32]", "value": 12.9, "unit": "µM"}
    ]}
  ]
}
